Series [1] concerns Citrin. Put plainly: Western blot of citrin protein after shCitrin. In kind it is cell-based, human. To be noted: MDA-MB-435, Dox induction. Here is the method:
Cells were lysed in RIPA (Sigma-Aldrich) and 0.5% protease inhibitor cocktail (Calbiochem). After centrifugation, the supernatant was collected and protein content was evaluated by the Bradford assay. One hundred micrograms from each sample under reducing conditions were loaded into each lane and separated by electrophoresis on a 10% SDS polyacrylamide gel. After electrophoresis, proteins were transferred to Immobilon transfer membranes (Tamar). Non-specific binding was blocked by incubation with TBST (10 mM Tris-HCl (pH 8.0), 150 mM NaCl, 0.1% Tween 20), containing 3% albumin from bovine serum for 1 hour at 25° C. Membranes were subsequently incubated with antibodies against Citrin (1:200, H00010165-M01, Abnova), ASS1 (1:500, sc-99178, Santa Cruz Biotechnology) and p97 (1:10,000, PA5-22257, Thermo Scientific). Antibody was detected using peroxidase-conjugated AffiniPure goat anti-rabbit IgG or goat anti-mouse IgG (Jackson ImmunoResearch) and enhanced chemiluminescence Western blotting detection reagents (EZ-Gel, Biological Industries). Gels were quantified by Gel Doc XR+(BioRad) and analysed by ImageLab 4.1 software (BioRad). The band area was calculated by the intensity of the band. The obtained value was then divided by the value obtained from the loading control. […]

The test system of series [2] is U2OS human osteosarcoma cell-line transduced with shASS1. The series is described as follows: Crystal violet proliferation, arginine deprivation combined with drug treatments. In kind it is cell-based. Here is the method: Cells were seeded in 12-well plates at 70,000 cells/well in a triplicate. Time 0 was calculated as the time the cells became adherent, which was after about 6 hours from plating. For each time point, cells were washed with PBS X1 and fixed in 4% PFA (in PBS). Cells were then stained with 0.1% Crystal Violet (Catalog #: C0775, Sigma-Aldrich) for 20 minutes (1 ml per well) and washed with water. Cells were then incubated with 10% acetic acid for 20 minutes with shaking. Extract was then diluted 1:4 in water and absorbance was measured at 590 nm every 24 hours.
U2OS human osteosarcoma cell-line was seeded in 6-well plates at 80,000 cells/well. The following day, cells were treated with either 100 nM Rapamycin (#R0395, Sigma-Aldrich) or with 10 μM 5FU (#F6627, Sigma-Aldrich) in regular medium, with 10% dialyzed FCS-arginine-free-RPMI (Catalogue No. 06-1104-34-1A, Biological Industries, Kibbutz beit-haemek, Israel), or with both arginine depleted medium and one of these drugs. Rapamycin and 5FU were renewed into the medium every day, whereas fresh arginine-free medium was supplemented twice a week.

The target of series [3] is T1, Citrin (Homo sapiens, UniProt Q9UJS0).
T1 sequence (Q9UJS0 1-675): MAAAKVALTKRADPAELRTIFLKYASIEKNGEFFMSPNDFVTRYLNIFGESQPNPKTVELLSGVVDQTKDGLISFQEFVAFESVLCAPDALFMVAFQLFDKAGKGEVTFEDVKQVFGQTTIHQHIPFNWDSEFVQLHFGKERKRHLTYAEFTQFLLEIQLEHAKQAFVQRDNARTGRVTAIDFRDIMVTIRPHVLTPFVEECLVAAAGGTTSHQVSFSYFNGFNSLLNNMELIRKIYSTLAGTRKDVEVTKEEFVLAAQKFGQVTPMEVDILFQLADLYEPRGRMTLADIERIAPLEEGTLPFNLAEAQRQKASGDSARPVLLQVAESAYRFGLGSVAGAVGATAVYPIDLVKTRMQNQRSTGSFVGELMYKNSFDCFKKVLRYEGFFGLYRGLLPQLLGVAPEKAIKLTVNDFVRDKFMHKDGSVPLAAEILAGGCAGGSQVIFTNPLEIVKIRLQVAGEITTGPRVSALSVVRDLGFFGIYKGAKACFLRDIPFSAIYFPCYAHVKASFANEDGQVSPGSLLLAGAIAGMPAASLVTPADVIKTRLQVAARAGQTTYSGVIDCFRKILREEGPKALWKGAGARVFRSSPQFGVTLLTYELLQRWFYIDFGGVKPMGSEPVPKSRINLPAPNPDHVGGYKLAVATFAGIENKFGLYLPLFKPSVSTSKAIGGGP
The series is described as follows: Metabolomics analysis for potential citrin inhibitors (15N-alpha-glutamine labelling, GC-MS). In kind it is cell-based. Set-up: endogenous in cells; host or cells: U2OS osteosarcoma cells. The note with it: U2OS, 4 mM L-Glutamine (ALPHA-15N), compound 10-100 μM, 24 hours. The procedure: Osteosarcoma cell line (U2OS) were seeded at 1.5 to 2×10^6 cells per 10 cm plate. The next day (60% confluence) the cells were incubated with 4 mM of L-Glutamine (ALPHA-15N, 98%; Cat. Number: NLM-1016-1; Cambridge Isotope Laboratories) in the presence of either control (medium only) or one of compounds 1, 2, or 3 (at a concentration range between 10-100 μM), for 24 hours. Compound “1”=D-Glutamic acid; compound “2”=L-glutamic acid-5-methyl ester; “compound “3”=L-glutamic acid-gamma-benzyl ester. Compounds 1-3 are commercially available and were bought from Sigma Aldrich. Subsequently, cells were washed with ice-cold saline, lysed with 50% methanol in water and quickly scraped followed by three freeze-thaw cycles in liquid nitrogen. The insoluble material was pelleted in a cooled centrifuge (4° C.) and the supernatant was collected for consequent GC-MS analysis. Samples were dried under air flow at 42° C. using a Techne Dry-Block Heater with sample concentrator (Bibby Scientific) and the dried samples were treated with 40 μl of a methoxyamine hydrochloride solution (20 mg ml^−1 in pyridine) at 37° C. for 90 minutes while shaking followed by incubation with 70 μl N,O-bis (trimethylsilyl) trifluoroacetamide (Sigma) at 37° C. for an additional 30 minutes.
GC-MS analysis used a gas chromatograph (7820AN, Agilent Technologies) interfaced with a mass spectrometer (5975 Agilent Technologies). An HP-5 ms capillary column 30 m×250 μm×0.25μm (19091S-433, Agilent Technologies) was used. Helium carrier gas was maintained at a constant flow rate of 1.0 ml min −1. The GC column temperature was programmed from 70 to 150° C. via a ramp of 4° C. min −1, […] via a ramp of 9° C. min −1, 215-300° C. via a ramp of 25° C. min −1 and maintained at 300° C. for an additional 5 minutes. The MS was by electron impact ionization and operated in full-scan mode from m/z=30-500. The inlet and MS transfer line temperatures were maintained at 280° C., and the ion source temperature was 250° C. Sample injection (1 μl) was in splitless mode.
Specifically, Aspartate at a mass of M+1 is a metabolite that comes out of the mitochondria via Citrin.

Series [4] concerns the target T1, Citrin. The note with it: at 1 about mM; cited from earlier work.

Regarding “5′-GTATCCTATCGATCTTGTA-3′ (expressed or natural sequence) [sh909]”, in the series on Citrin [1], the “citrin protein production (Western blot)” value is “no production of citrin”.
Turning to “5′-TTAAGAAAGTGCTACGCTA-3′ (expressed or natural sequence) [sh901]”, the “citrin protein production (Western blot)” value with Citrin [1] is listed as “no production of citrin”.
Consider `O=c1[nH]cc(F)c(=O)[nH]1` [5FU, Fluorouracil], for which the “proliferation, drug together with arginine depleted medium” value in series [2] (U2OS shASS1, arginine depleted medium plus 100 nM Rapamycin or 10 μM 5FU) was “significant additive beneficial effect”. In addition, the “proliferation, isolated drug treatment” value in series [2] (U2OS shASS1, complete medium, 100 nM Rapamycin or 10 μM 5FU) is “more beneficial than Rapamycin”.
Consider `N[C@H](CCC(=O)O)C(=O)O` [Compound 1, D-Glutamic acid], for which, at Citrin [3], the “Uracil M+1 inhibition (in words)” value was “inhibited”.
Regarding `COC(=O)CC[C@H](N)C(=O)O` [Compound 2, L-glutamic acid-5-methyl ester], the “Uracil M+1 inhibition (in words)” value at Citrin [3] was “inhibited”.
With `N[C@@H](CCC(=O)OCc1ccccc1)C(=O)O` [Compound 3, L-glutamic acid-gamma-benzyl ester], on Citrin [3], the “Aspartate M+1 relative to control” value was “inhibited” and the “Uracil M+1 inhibition” value was ~35%.
As to `CCN1C(=O)C=CC1=O` [N-ethylmaleimid], the “inhibition of citrin in vitro” value at Citrin [4] is reported as “about 50%”.

The record behind these values is US20180161300A1, “CITRIN INHIBITORS FOR THE TREATMENT OF CANCER” (Yeda Research And Development Co. Ltd., priority 2015, published 2018).
